{
  "source": "patent US20230405003A1",
  "about": "“APPLICATION OF THYMIDINE DERIVATIVE IN PREPARATION OF DRUGS” (ONQUALITY PHARMACEUTICALS CHINA LTD., priority 2020, published 2023)",
  "key": {"[1]": {"tested_on": "5-FU-induced diarrhea in Balb/c mice", "experiment": "5-FU-induced diarrhea mouse model (175 mg/kg single i.p.)", "format": "in vivo", "conditions": "5-FU 175 mg/kg single i.p.; for Survival Rate / Average Diarrhea Grade: 6 days; for Average Diarrhea Grade: score 0-4", "protocol": "7-8-week-old male Balb/c mice were used to establish a 5-FU induced diarrhea model to test the effect of the thymidine derivative or the combination of thymidine derivative and uridine derivative on the relief of diarrhea.\nModeling dose of 5-Fu: 175 mg/kg; single administration, intraperitoneal injection (ip.);\nAdministration mode of the compound to test (thymidine derivative or combination of thymidine derivative and uridine derivative): single administration, by gavage, advance administration of the compound to test at various time points prior to intraperitoneal injection of 5-FU. The compound to test was administered 1 h prior to the administration of 5-FU, a certain amount of 5-FU was injected intraperitoneally 1 h later, and the compound to test was administered once again 7 h after the injection of 5-FU.\nThe mice were fed and adapted for one week, and then divided into groups, with 10 mice in each group for administration test.\nThe mice in the Group of blank was injected with 0.9% NaCl, and evaluated the effect by observing the change of diarrhea grade, food uptake, and weight change. The severity of diarrhea was scored in accordance with the following standards: 0: normal feces, 1: soft feces, 2: slightly wet, soft feces, 3: wet, unformed feces, with moderate coloration in perianal region, 4: watery feces with heavy coloration of hair in perianal region. The severity of diarrhea was evaluated by occurrence scores of various grades of diarrhea (Scores 0 to 4) and average score of diarrhea. […] The models were stable, and satisfied the experimental requirements.\n5-FU was dissolved in a 0.9% NaCl solution, the mice in the model group and the treatment group were all i.p. injected at a dose of 175 mg/kg/d, […]. While modeling of injection administration of 5-FU, the thymidine derivative or the combination of thymidine derivative and uridine derivative was administered by gavage, and the compounds to test were dissolved in a PBS solution containing 5% DMSO+1% HPMC. Body weight was weighed daily to count the weight change (Δ % BW, the weight changes recorded in the table were the values on Day 6), and the food was weighed daily to calculate the food uptake. The mice were daily observed for their clinical status, e.g., activity, diarrhea, hair, fighting, etc. After 6 days, the experiments were completed and statistically analyzed for the results."}, "[2]": {"tested_on": "hand-foot syndrome caused by Cytarabine in rats", "experiment": "Rat model of hand-foot syndrome caused by cytarabine, gel application", "format": "in vivo", "conditions": "Cytarabine 120 mg/kg twice per day, 30 days", "protocol": "(§1) After SD rats were fed and adapted for one week (about 200 g), the rats were divided into groups, with 10 rats in each group. Then, the rats were subject to gavage administration. Capecitabine was dissolved in a 1:1 mixed solution of castor oil and ethanol and diluted for three times with PBS buffer. After gavage, the rats were fixed with a fixed cylinder, and a gel of thymidine derivative (or a compounded gel of thymidine derivative and uridine derivative) was applied to double hind paws (about 1 cm*3 cm) of the rats in group of administration (the types and concentrations are shown in Table 4), and a blank gel was applied to the group of blank (as a blank control). After approximately 4 hours of application, the rats were released after 4 hours, wiped with clean water to remove any residual drug at the application site, and allowed back to the cage. The thymidine derivative gel (or the compounded gel of thymidine derivative and uridine derivative) was administered with gavage every day. The gavage and application tests are repeated daily until the group of blank has developed obvious hand-foot syndrome.\n(§2) The effects of thymidine derivative or a combination of thymidine derivative and uridine derivative on the chemotherapeutic drug-induced hand-foot syndrome in a rat model were tested according to the method in Examples 30-40. At the same time, paws of rats after treatment with the drug were taken and observed for their inflammation by hematoxylin-eosin staining (HE) and immunohistochemical staining (IHC).\n(§3) The test thymidine derivative or the combination of thymidine derivative and uridine derivative, as well as the final concentration of the test compounds were shown in Table 8. Table 8 lists the animal experiment combination of a chemotherapeutical drug and the thymidine derivative gel (or the compound gel of thymidine derivative and uridine derivative) and the corresponding experimental results (wherein, the data in the column of control rate=the occurrence rate of hand-foot syndrome in Group of blank—the occurrence rate of hand-foot syndrome in Group of administration)."}, "[3]": {"tested_on": "hand-foot syndrome caused by Acelarin (NUC-1031) in rats", "experiment": "Rat model of hand-foot syndrome caused by Acelarin (NUC-1031), gel application", "format": "in vivo", "conditions": "Acelarin (NUC-1031) 130 mg/kg intraperitoneal injection twice a week, gel 3 wt%, 30 days", "protocol": "as §1, §2, §3"}, "[4]": {"tested_on": "hand-foot syndrome caused by Doxorubicin in rats", "experiment": "Rat model of hand-foot syndrome caused by doxorubicin, gel application", "format": "in vivo", "conditions": "Doxorubicin 7 mg/kg tail intravenous injection once every three days for 20 days, gel 3 wt%, 30 days", "protocol": "as §1, §2, §3"}, "[5]": {"tested_on": "human colon cancer cell HCT116 xenograft", "experiment": "Effect of thymidine derivative gel on therapeutical effect of capecitabine, HCT116 xenograft nude mice", "format": "in vivo, mouse", "conditions": "oral capecitabine 1.5 mmol/kg, 0.5% or 2% T1 gel on the back once per day, 14 days", "protocol": "A BALB/C nude mouse (human colon cancer cell HCT116 xenograft) model was established. After the model was stable, the model mice were divided into four groups (in which the average tumor size of each of the 4 groups was kept as consistent as possible). Except the blank group (containing 5 mice), there were 10 mice in each group, which were subject to gavage and application experiments.\nCapecitabine was dissolved in a mixed solution of castor oil:ethanol=1:1 (volume ratio). Prior to gavage, the mixture was diluted with PBS to the desired concentration (diluted for about 3 times with PBS solution). […]\nA: Group of blank: 5 mice with tumors, no gavage and no drug application; B: blank group: 10 mice with tumors, oral gavage with capecitabine (1.5 mmol/kg), application with blank gel on the back (once per day for 14 days); C: 0.5% T1 group: 10 mice with tumors, oral gavage of capecitabine, application with 0.5% T1 gel (administration method and frequency are the same as those in group B); D: 2% T1 gel group: 10 mice with tumors, oral gavage of capecitabine, application of 2% T1 gel (administration method and frequency are the same as those in group B). […] The tumor size was measured and recorded every 2 days. After 14 days of the experiment, the mice were dissected to take out the tumor, which was weighed and recorded."}},
  "data": [
    {"smiles": "Cc1ccc(C(=O)c2ccc(CC(=O)OC[C@H]3O[C@@H](n4cc(C)c(=O)[nH]c4=O)C[C@@H]3O)n2C)cc1", "note": "[T36]", "values": [
      {"measurement": "Δ % BW (on Day 6)", "setting": "[1]; 50 mpk gavage", "result": "2.25% ± 0.54%"},
      {"measurement": "Survival Rate", "setting": "[1]; 50 mpk gavage", "result": 100, "unit": "%"},
      {"measurement": "Average Diarrhea Grade", "setting": "[1]; 50 mpk gavage", "result": 1.6}
    ]},
    {"smiles": "Cc1cn([C@H]2C[C@H](O)[C@@H](COC(=O)[C@H](C)c3ccc(CC(C)C)cc3)O2)c(=O)[nH]c1=O", "note": "[T32]", "values": [
      {"measurement": "Control Rate Forepaws", "setting": "[2]; gel 2 wt%", "result": 33.33, "unit": "%"},
      {"measurement": "Control Rate Hindpaws", "setting": "[2]; gel 2 wt%", "result": 33.33, "unit": "%"},
      {"measurement": "Control Rate Forepaws", "setting": "[3]", "result": 50, "unit": "%"},
      {"measurement": "Control Rate Hindpaws", "setting": "[3]", "result": 62.50, "unit": "%"}
    ]},
    {"smiles": "Cc1ccc(C(=O)c2ccc(CC(=O)O[C@H]3C[C@H](n4cc(C)c(=O)[nH]c4=O)O[C@@H]3CO)n2C)cc1", "note": "[T45]", "values": [
      {"measurement": "Δ % BW (on Day 6)", "setting": "[1]; 15 mpk gavage", "result": "−0.34% ± 0.36%"},
      {"measurement": "Survival Rate", "setting": "[1]; 15 mpk gavage", "result": 100, "unit": "%"},
      {"measurement": "Average Diarrhea Grade", "setting": "[1]; 15 mpk gavage", "result": 1.4}
    ]},
    {"smiles": "Cc1cn([C@H]2C[C@H](OC(=O)C(C)c3cccc(C(=O)c4ccccc4)c3)[C@@H](CO)O2)c(=O)[nH]c1=O", "note": "(stereo partly shown) [T50]", "values": [
      {"measurement": "Δ % BW (on Day 6)", "setting": "[1]; 50 mpk gavage", "result": "2.08% ± 0.86%"},
      {"measurement": "Survival Rate", "setting": "[1]; 50 mpk gavage", "result": 100, "unit": "%"},
      {"measurement": "Average Diarrhea Grade", "setting": "[1]; 50 mpk gavage", "result": 1.1}
    ]},
    {"smiles": "COc1ccc2cc([C@H](C)C(=O)OC[C@H]3O[C@@H](n4cc(C)c(=O)[nH]c4=O)C[C@@H]3O)ccc2c1", "note": "[T25]", "values": [
      {"measurement": "Control Rate Forepaws", "setting": "[4]", "result": 37.50, "unit": "%"},
      {"measurement": "Control Rate Hindpaws", "setting": "[4]", "result": 62.50, "unit": "%"},
      {"measurement": "Control Rate Forepaws", "setting": "[2]; gel 3 wt%", "result": 42.86, "unit": "%"},
      {"measurement": "Control Rate Hindpaws", "setting": "[2]; gel 3 wt%", "result": 57.14, "unit": "%"},
      {"measurement": "Control Rate Forepaws", "setting": "[3]", "result": 57.14, "unit": "%"},
      {"measurement": "Control Rate Hindpaws", "setting": "[3]", "result": 42.86, "unit": "%"}
    ]},
    {"smiles": "CC(=O)OCC1OC(n2cc(C)c(=O)[nH]c2=O)CC1OC(C)=O", "note": "(stereo not shown) [T1]", "values": [
      {"measurement": "tumor volume with T1 gel versus blank gel", "setting": "[5]", "result": "close to or slightly smaller than that of Group of blank gel"}
    ]},
    {"smiles": "CC1=C(CC(=O)OC[C@H]2O[C@@H](n3cc(C)c(=O)[nH]c3=O)C[C@@H]2O)c2cc(F)ccc2/C1=C\\c1ccc([S+](C)[O-])cc1", "note": "(stereo partly shown) [T40]", "values": [
      {"measurement": "Control Rate Forepaws", "setting": "[3]", "result": 50, "unit": "%"},
      {"measurement": "Control Rate Hindpaws", "setting": "[3]", "result": 62.50, "unit": "%"}
    ]}
  ]
}
